Consider 19 compounds from patent publication US20230277534A1 (Plexxikon Inc., priority 2011, published 2023).

Structures are written as SMILES.

In test [1] the test system is COLO205 colon adenocarcinoma cells (B-Raf V600E mutation). The test is described as follows: COLO205 cell growth inhibition (ATPlite). In kind it is cell-based. The settings on record: Homo sapiens, COLO 205, 72 h, 3 days. The method, then:
Compounds are assessed in a variety of cell based assays.
On day 1, cells are counted, then centrifuged in a conical tube for 5 minutes at 1000 rpm.
On day 2, compound at a maximum concentration of 5 mM is serially diluted 1:3 (e.g. 10 μL with 30 μL dimethyl sulfoxide) for a total of 8 point titration with DMSO as a control. A 1 μL aliquot of each dilution point and control is added to 249 μL growth media and 50 μL is added to a well containing cells, providing 10 μM compound at the maximum concentration point. The cells are incubated for 3 days at 37° C. in 5% CO2.
ATPlite is added 25 μL to each well, shake for 2 minutes, and the cells are incubated at room temperature for 10 minutes, then luminescence is read on Safire reader. The measured luminescence correlates directly with cell number, such that the reading as a function of compound concentration is used to determine the IC50 value.

Test [2] addresses B-Raf V600E (Homo sapiens (Human), UniProt P15056, V600E). The test is described as follows: B-Raf V600E kinase biochemical activity assay (AlphaScreen, biotin-MEK1 substrate). The settings on record: 100 μM ATP. The method, then: Assays for biochemical and cell based activity are known in the art, for example, as described in PCT publication WO 2007/002433, the disclosure of which is hereby incorporated by reference as it relates to such assays. For example, the biochemical activity IC50 values are determined with respect to inhibition of B-Raf V600E kinase activity or p-Erk kinase activity, where inhibition of phosphorylation of a peptide substrate is measured as a function of compound concentration. Compounds to be tested are diluted in dimethyl sulfoxide to a concentration of 0.1 mM. These are serially diluted 15 μL into 30 μL of dimethyl sulfoxide seven times in 96 well plates for a total of 8 dilution points, and for each dilution point 1 μL is added to a well of an assay plate. Plates are prepared such that each well in a 384 well plate contains 1 μL of compound in 10 μL volume with 0.1 ng Raf enzyme (i.e. any of B-Raf, c-Raf-1 or B-Raf V600E, Upstate Biotechnology or prepared by methods known to one of skill in the art), 50 mM HEPES, pH 7.0, 50 mM NaCl, 2 mM MgCl2, 1 mM MnCl2, 0.01% Tween-20, 1 mM DTT, and 100 nM biotin-MEK1 as substrate. The reaction is started with addition of 10 μL of 200 μM ATP (i.e. final 100 μM ATP). After incubation of the kinase reaction for 45 minutes at room temperature, 5 μL/well of Stop Solution is added (25 mM Hepes pH 7.5, 100 mM EDTA, 0.01% BSA with donor beads (Streptavidin coated beads, Perkin Elmer), acceptor beads (Protein A coated, Perkin Elmer), and anti phosphor MEK1/2 antibody (CellSignal), each at final concentration 10 μg/mL). The plates are incubated for 3 hours at room temperature and read on Envision reader (Perkin Elmer). Phosphorylation of Mek1 results in binding of the anti-phosphor-MEK1/2antibody and association of the donor and acceptor beads such that signal correlates with kinase activity. The signal vs. compound concentration is used to determine the IC50.
(In general: In Alpha technology, singlet oxygen from a donor bead excites a nearby acceptor bead.)

Chain of B-Raf V600E (P15056 whole entry V600E): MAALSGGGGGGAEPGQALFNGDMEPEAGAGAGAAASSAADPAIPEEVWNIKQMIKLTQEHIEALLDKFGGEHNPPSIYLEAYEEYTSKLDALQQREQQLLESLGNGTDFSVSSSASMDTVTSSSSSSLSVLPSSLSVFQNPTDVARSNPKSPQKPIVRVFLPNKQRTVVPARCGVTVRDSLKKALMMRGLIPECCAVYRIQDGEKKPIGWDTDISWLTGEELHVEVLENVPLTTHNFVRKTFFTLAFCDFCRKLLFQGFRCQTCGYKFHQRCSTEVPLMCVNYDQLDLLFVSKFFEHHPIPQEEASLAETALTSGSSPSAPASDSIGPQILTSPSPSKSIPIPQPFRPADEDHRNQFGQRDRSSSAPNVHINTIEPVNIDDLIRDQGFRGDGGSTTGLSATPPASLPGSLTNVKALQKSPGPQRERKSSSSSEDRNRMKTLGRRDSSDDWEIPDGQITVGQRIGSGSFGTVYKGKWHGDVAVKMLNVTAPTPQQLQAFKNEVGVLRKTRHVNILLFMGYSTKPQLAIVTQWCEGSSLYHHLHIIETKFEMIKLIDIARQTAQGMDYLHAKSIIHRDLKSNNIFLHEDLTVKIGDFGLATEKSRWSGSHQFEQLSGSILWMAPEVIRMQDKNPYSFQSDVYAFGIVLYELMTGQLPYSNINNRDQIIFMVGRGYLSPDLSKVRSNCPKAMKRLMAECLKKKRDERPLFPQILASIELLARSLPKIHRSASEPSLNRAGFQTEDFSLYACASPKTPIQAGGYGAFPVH

Turning to `COCCS(=O)(=O)Nc1cccc(C(=O)c2c[nH]c3ncc(-c4cnc(OC)nc4)cc23)c1F` [Compound P-0065, N-[2-fluoro-3-[5-(2-methoxypyrimidin-5-yl)-1H-pyrrolo[2,3-b]pyridine-3-carbonyl]phenyl]-2-methoxy-ethanesulfonamide], the IC50 – broadly, the concentration at which inhibition is half-maximal – in test [1] is over 1 µM; in test [2] it was under 0.1 µM.

`CC(C)NS(=O)(=O)Nc1cccc(C(=O)c2c[nH]c3ncc(I)cc23)c1F` [Compound P-0071, [2-fluoro-3-(isopropylsulfamoylamino)phenyl]-(5-iodo-1H-pyrrolo[2,3-b]pyridin-3-yl)methanone]: the IC50 is over 1 µM in test [1] and over 0.1 µM in test [2].

For the compound `COc1ncc(-c2cnc3[nH]cc(C(=O)c4cccc(NS(=O)(=O)N(C)CC(C)C)c4F)c3c2)cn1` [Compound P-0072, 3-[2-fluoro-3-[[isobutyl(methyl)sulfamoyl]amino]benzoyl]-5-(2-methoxypyrimidin-5-yl)-1H-pyrrolo[2,3-b]pyridine], the values for the IC50 in test [1] and in test [2] were over 1 µM and over 0.1 µM, respectively.

`COCCN(C)S(=O)(=O)Nc1cccc(C(=O)c2c[nH]c3ncc(-c4cnc(OC)nc4)cc23)c1F` [Compound P-0073, 3-[2-fluoro-3-[[2-methoxyethyl(methyl)sulfamoyl]amino]benzoyl]-5-(2-methoxypyrimidin-5-yl)-1H-pyrrolo[2,3-b]pyridine]: the 50% inhibitory concentration (IC50) in test [1] was over 1 µM; in test [2] it was over 0.1 µM.

Turning to `COc1ncc(-c2cnc3[nH]cc(C(=O)c4cccc(NS(=O)(=O)N5CCCC5C)c4F)c3c2)cn1` (centres unmarked) [Compound P-0074, N-[2-fluoro-3-[5-(2-methoxypyrimidin-5-yl)-1H-pyrrolo[2,3-b]pyridine-3-carbonyl]phenyl]-2-methyl-pyrrolidine-1-sulfonamide], the IC50 is over 1 µM in test [1] and over 0.1 µM in test [2].

In the case of `CCN(C)S(=O)(=O)Nc1cccc(C(=O)c2c[nH]c3ncc(-c4ccc(N(C)C)nc4)cc23)c1F` [Compound P-0076, 5-[6-(dimethylamino)-3-pyridyl]-3-[3-[[ethyl(methyl)sulfamoyl]amino]-2-fluoro-benzoyl]-1H-pyrrolo[2,3-b]pyridine], the IC50 in test [1] was under 1 µM; in test [2], under 0.1 µM.

For `CCN(C)S(=O)(=O)Nc1cccc(C(=O)c2c[nH]c3ncc(-c4cnc(NC5CC5)nc4)cc23)c1F` [Compound P-0077, 5-[2-(cyclopropylamino)pyrimidin-5-yl]-3-[3-[[ethyl(methyl)sulfamoyl]amino]-2-fluoro-benzoyl]-1H-pyrrolo[2,3-b]pyridine], the IC50 is under 1 µM in test [1] and under 0.1 µM in test [2].

Turning to `CCCN(C)S(=O)(=O)Nc1ccc(F)c(C(=O)c2c[nH]c3ncc(-c4cnc(C5CC5)nc4)cc23)c1F` [Compound P-0078, 5-(2-cyclopropylpyrimidin-5-yl)-3-[2,6-difluoro-3-[[methyl(propyl)sulfamoyl]amino]benzoyl]-1H-pyrrolo[2,3-b]pyridine], the IC50 is over 1 µM in test [1] and under 0.1 µM in test [2].

In the case of `COCCN(C)S(=O)(=O)Nc1cccc(C(=O)c2c[nH]c3ncc(-c4ccc(C5(C#N)CC5)cc4)cc23)c1F` [Compound P-0080, 5-[4-(1-cyanocyclopropyl)phenyl]-3-[2-fluoro-3-[[2-methoxyethyl(methyl)sulfamoyl]amino]benzoyl]-1H-pyrrolo[2,3-b]pyridine], the IC50 in test [1] was over 1 µM; in test [2] it was under 0.1 µM.

As for `COCCN(C)S(=O)(=O)Nc1cccc(C(=O)c2c[nH]c3ncc(-c4cnc(NC5CC5)nc4)cc23)c1F` [Compound P-0081, 5-[2-(cyclopropylamino)pyrimidin-5-yl]-3-[2-fluoro-3-[[2-methoxyethyl(methyl)sulfamoyl]amino]benzoyl]-1H-pyrrolo[2,3-b]pyridine], the IC50 in test [1] is under 1 µM; in test [2], under 0.1 µM.

`CN(CC1CC1)S(=O)(=O)Nc1cccc(C(=O)c2c[nH]c3ncc(-c4cnc(C5CC5)nc4)cc23)c1F` [Compound P-0084, 3-[3-[[cyclopropylmethyl(methyl)sulfamoyl]amino]-2-fluoro-benzoyl]-5-(2-cyclopropylpyrimidin-5-yl)-1H-pyrrolo[2,3-b]pyridine]: the IC50 in test [1] was under 1 µM; in test [2] it was under 0.1 µM.

Take `COCCN(C)S(=O)(=O)Nc1cccc(C(=O)c2c[nH]c3ncc(-c4cnc(C5CC5)nc4)cc23)c1F` [Compound P-0085, 5-(2-cyclopropylpyrimidin-5-yl)-3-[2-fluoro-3-[[2-methoxyethyl(methyl)sulfamoyl]amino]benzoyl]-1H-pyrrolo[2,3-b]pyridine]: the IC50 is over 1 µM in test [1] and under 0.1 µM in test [2].

Turning to `COc1ncc(-c2cnc3[nH]cc(C(=O)c4cccc(NS(=O)(=O)N5CC(F)(F)C5)c4F)c3c2)cn1` [Compound P-0088, 3,3-difluoro-N-[2-fluoro-3-[5-(2-methoxypyrimidin-5-yl)-1H-pyrrolo[2,3-b]pyridine-3-carbonyl]phenyl]azetidine-1-sulfonamide], the IC50 in test [1] is over 1 µM; in test [2], under 0.1 µM.

As to `CCN(C)S(=O)(=O)Nc1cccc(C(=O)c2c[nH]c3ncnc(N[C@@H](C)C4CC4)c23)c1F` [Compound P-0089, 4-[[(1S)-1-cyclopropylethyl]amino]-5-[3-[[ethyl(methyl)sulfamoyl]amino]-2-fluoro-benzoyl]-7H-pyrrolo[2,3-d]pyrimidine], the IC50 in test [1] is over 1 µM; in test [2], under 0.1 µM.

For `N#Cc1ccc(-c2cnc3[nH]cc(C(=O)c4cccc(NS(=O)(=O)N5CCCC5)c4F)c3c2)cc1` [Compound P-0090, N-[3-[5-(4-cyanophenyl)-1H-pyrrolo[2,3-b]pyridine-3-carbonyl]-2-fluoro-phenyl]pyrrolidine-1-sulfonamide], the IC50 in test [1] is under 1 µM; in test [2], under 0.1 µM.

As to `Cc1ncc(-c2cnc3[nH]cc(C(=O)c4cccc(NS(=O)(=O)N5CCCC5)c4F)c3c2)cn1` [Compound P-0092, N-[2-fluoro-3-[5-(2-methylpyrimidin-5-yl)-1H-pyrrolo[2,3-b]pyridine-3-carbonyl]phenyl]pyrrolidine-1-sulfonamide], the IC50 in test [1] is under 1 µM; in test [2], under 0.1 µM.

For the compound `N#Cc1cncc(-c2cnc3[nH]cc(C(=O)c4cccc(NS(=O)(=O)N5CCCC5)c4F)c3c2)c1` [Compound P-0093, N-[3-[5-(5-cyano-3-pyridyl)-1H-pyrrolo[2,3-b]pyridine-3-carbonyl]-2-fluoro-phenyl]pyrrolidine-1-sulfonamide], the figures for the IC50 in test [1] and in test [2] were under 1 µM and under 0.1 µM, respectively.

Take `N#Cc1ccc(-c2cnc3[nH]cc(C(=O)c4cccc(NS(=O)(=O)N5CCCC5)c4F)c3c2)cn1` [Compound P-0094, N-[3-[5-(6-cyano-3-pyridyl)-1H-pyrrolo[2,3-b]pyridine-3-carbonyl]-2-fluoro-phenyl]pyrrolidine-1-sulfonamide]: the IC50 in test [1] is under 1 µM; in test [2], under 0.1 µM.

For the compound `O=C(c1cccc(NS(=O)(=O)N2CCCC2)c1F)c1c[nH]c2ncc(-c3ccc(C(F)(F)F)nc3)cc12` [Compound P-0095, N-[2-fluoro-3-[5-[6-(trifluoromethyl)-3-pyridyl]-1H-pyrrolo[2,3-b]pyridine-3-carbonyl]phenyl]pyrrolidine-1-sulfonamide], the values for the IC50 in test [1] and in test [2] were under 1 µM and under 0.1 µM, respectively.
